Assay results as given in US10959979B2, “Small molecules against cancer” (Biokine Therapeutics Ltd., priority 2015, dated 2021).
“Also recorded” adds a separate entry of the source.

Legend:
Legionella = settings: cited from earlier work
MCP-1 = MCP-1 (Homo sapiens, UniProt P13500); experiment: Migration of THP-1 cells towards MCP-1 (Transwell migration assay); assay type: cell-based; settings: BKT300 at 78% purity
Method: (§1) 600 μl of RPMI medium was added to the lower chambers of Transwell® transmigration plates, supplemented with 2 μg/ml of MIP3a, 100 ng/ml of SDF-1 or 10 ng/ml of MCP-1. The tested small molecule was added to the lower chambers at the indicated concentration, except in control samples. The MIP3a, SDF-1 or MCP-1 was incubated with the small molecule for 30 minutes at room temperature before the initiation of the migration assay. Following 30 minutes of incubation 2×10^5 immune cells were added to the upper chambers of the transmigration plates in a total volume of 100 μl. Cells which migrated within 3 hours to the bottom chamber of the Transwell® plates were counted using a FACScalibur™ flow cytometer.
To evaluate migration towards MCP-1, THP-1 cells were re-suspended in RPMI medium containing 1% fetal calf serum (FCS).

MIP3a = MIP3a (Homo sapiens, UniProt P78556); experiment: Migration of CD4+ T-cells toward MIP3a (Transwell migration assay); assay type: cell-based
Sequence of MIP3a (P78556 27-96): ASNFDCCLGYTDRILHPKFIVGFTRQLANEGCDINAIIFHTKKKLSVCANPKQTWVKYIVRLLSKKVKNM
Method: as §1
To evaluate migration toward MIP3a, peripheral blood mononuclear cells (PBMCs) were isolated from heparinized venous blood by centrifugation over Ficoll Histopaque® 1077. CD4+ T cells were further isolated with RosetteSep™ human CD4+ T-cell Enrichment cocktail (StemCell Technologies Inc.), according to the manufacturer's instructions. CD4+ T cells were re-suspended in RPMI medium containing 1% fetal calf serum (FCS).

SDF-1 = SDF-1 (Homo sapiens, UniProt P48061); experiment: Migration of Jurkat cells towards SDF-1 (Transwell migration assay); assay type: cell-based; settings: for Selectivity of inhibition of SDF-1 function over MCP-1 and/or MIP3a function: at a concentration of about 10 μg/ml
Sequence of SDF-1 (P48061 22-93): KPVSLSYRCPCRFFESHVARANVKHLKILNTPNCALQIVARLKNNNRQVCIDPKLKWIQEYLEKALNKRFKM
Method: as §1
To evaluate migration towards SDF-1, Jurkat cells were re-suspended in RPMI medium containing 1% fetal calf serum (FCS).

[1] = system: MV4-11 human acute myeloid leukemia cells; experiment: Cancer cell viability, FACS with propidium iodide staining; assay type: cell-based; settings: 24 hours
Method: In order to assess the effect of compounds of Table 2 on cancer cell viability, the in vitro effect of the compounds on MV4-11 human acute myeloid leukemia cells was evaluated. The cancer cells were incubated in RPMI cell medium with 1% fetal calf serum (FCS) at a concentration of 2×10^5 cells/well at a final volume of 250 μl in 96-well plate. The compounds were added to the cells at the indicated concentrations. The cells were incubated for 24 hours and the number of dead and viable cells was then evaluated by fluorescence-activated cell sorting (FACS), using propidium iodide (PI) staining.

cancer cells = settings: literature reports; cited from earlier work
[2] = system: MCP-1 expression in adipocytes; settings: reported by Kuroyanagi et al.; cited from earlier work

Sequence of MCP-1 (P13500 24-99): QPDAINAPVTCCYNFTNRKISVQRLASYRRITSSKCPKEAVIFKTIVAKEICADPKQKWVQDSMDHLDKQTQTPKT

Structure (SMILES) | Inhibition of migration of monocytic THP-1 cells towards MCP-1 (MCP-1; 10 μg/ml) | Inhibition of migration of monocytic THP-1 cells towards MCP-1 (MCP-1; 50 μg/ml) | Inhibition of CD4+ T-cell migration towards MIP3a (MIP3a; 50 μg/ml, BKT300 at 78% purity) | Inhibition of migration of lymphocytic Jurkat cells towards SDF-1 (SDF-1; 10 μg/ml, BKT300 at 78% purity) | Inhibition of CD4+ T-cell migration towards MIP3a (MIP3a; 10 μg/ml) | other results
CCCCCC(=O)Cc1cc(O)cc(O)c1Oc1cc(O)cc2cc(CCCCC)oc(=O)c12 [8-(2,4-dihydroxy-6-(2-oxoheptyl)-phenoxy)-6-hydroxy-3-pentyl-1H-isochromen-1-one] |  |  |  |  |  | Antibacterial activity against Legionella (Legionella): potent antibacterial activity
CC(C)=CCc1c(O[C@@H]2O[C@H](CO)[C@@H](O)[C@H](O)[C@H]2O)cc(O)c2c1O[C@H](c1ccc(O)cc1)CC2=O [BKT201] | no apparent effect | strong inhibition | completely inhibited | significantly inhibited; also recorded: strong inhibition |  | Selectivity of inhibition of SDF-1 function over MCP-1 and/or MIP3a function (SDF-1): relatively selective manner
C=C1CCC2C(C)(C)C(O)CCC2(C)C1COc1ccc2ccc(=O)oc2c1 (stereo not drawn) [BKT202] |  |  | completely inhibited |  | significantly inhibited | 
Cc1cc(O)c2c(=O)c3c(O)cc(O)c4c5c(O)cc(O)c6c(=O)c7c(O)cc(C)c8c1c2c(c34)c(c78)c65 [BKT203, Hypericin] |  |  |  | significantly inhibited; also recorded: strong inhibition | completely inhibited | 
Cc1c(O)c(C)c2c(c1O)C(=O)CC(c1ccc(O)c(O)c1)O2 (stereo not drawn) [BKT204, Cyrtominetin] | partial inhibition | strong inhibition |  | significantly inhibited |  | 
CCCCCC=CC=CC(=O)CCCCCCCC(=O)O [BKT205] | no apparent effect | strong inhibition | completely inhibited | significantly inhibited; also recorded: strong inhibition |  | Selectivity of inhibition of SDF-1 function over MCP-1 and/or MIP3a function (SDF-1): relatively selective manner
CCC/C=C\C/C=C\CCCCCCCc1cccc(O)c1C(=O)O [BKT206] | partial inhibition | strong inhibition |  | significantly inhibited; also recorded: strong inhibition | completely inhibited | Cell death of MV4-11 cells ([1]; 10 μg/ml): induced cell death
COC(=O)c1c(O)cc2c(c1C)C(=O)c1c(O)cccc1C2=O [BKT207, Aloesaponarin I] |  |  |  | significantly inhibited; also recorded: strong inhibition | completely inhibited | 
C/C(=C/COc1c2occc2cc2ccc(=O)oc12)CO [BKT208, Trichoclin] |  |  |  | significantly inhibited |  | 
CCCCCCCCC(=O)/C=C/C=C/C(=O)CCCC(=O)O [BKT209] | no apparent effect | strong inhibition | completely inhibited | significantly inhibited; also recorded: strong inhibition |  | Selectivity of inhibition of SDF-1 function over MCP-1 and/or MIP3a function (SDF-1): relatively selective manner
O=C(O)c1cc(O)c2c(c1)[C@H]([C@H]1c3cc(C(=O)O)cc(O)c3C(=O)c3c(O[C@@H]4O[C@H](CO)[C@@H](O)[C@H](O)[C@H]4O)cccc31)c1cccc(O[C@@H]3O[C@H](CO)[C@@H](O)[C@H](O)[C@H]3O)c1C2=O [BKT210, Sennoside A] |  |  | completely inhibited | significantly inhibited | significantly inhibited | 
CC1CCC2=C(CCCC2(C)C(=O)O)C1(C)CCc1ccoc1 (stereo not drawn) [BKT211] | complete inhibition | strong inhibition |  | significantly inhibited; also recorded: strong inhibition |  | Cell death of MV4-11 cells ([1]; 10 μg/ml): induced cell death
C=C[C@H](O)C#CC#C[C@@H](O)/C=C\CCCCCCC [BKT212, Falcarindiol] |  |  |  | significantly inhibited; also recorded: strong inhibition | completely inhibited | Inhibition of cancer cells (cancer cells): inhibit cancer cells
CC(C)=CCc1cc(OC2O[C@H](CO)[C@@H](O)[C@H](O)[C@H]2O)cc(CC=C(C)C)c1C(O)C(=O)O (stereo partly drawn) [BKT213] |  |  | completely inhibited | significantly inhibited; also recorded: strong inhibition |  | Selectivity of inhibition of SDF-1 function over MCP-1 and/or MIP3a function (SDF-1): relatively selective manner
CC(C)=CCC/C(C)=C/COc1ccc2ccc(=O)oc2c1 [BKT215, Auraptene] |  |  |  |  |  | Inhibition of cancer cells (cancer cells): inhibit cancer cells; Cell death of MV4-11 cells ([1]; 20 am (equivalent to 6 μg/ml)): induced cell death; MCP-1 expression in adipocytes [2]: suppress MCP-1 expression
CC1(C)CC[C@]2(C(=O)O)CC[C@]3(C)C(=CC[C@@H]4[C@@]5(C)C[C@@H](O)[C@H](O)[C@@](C)(CO)[C@@H]5CC[C@]43C)[C@@H]2C1 [BKT216, Arjunolic acid] | partial inhibition | strong inhibition |  |  |  | Inhibition of cancer cells (cancer cells): inhibit cancer cells
CCCCCc1cc2cc(O)cc(Oc3c(O)cc(O)c(C(=O)O)c3CCCCC)c2c(=O)o1 [BKT400] |  |  |  |  |  | Inhibition of migration of lymphocytic Jurkat cells towards SDF-1 (SDF-1; 1 and 10 μg/ml tested (FIG. 15)): inhibit the migration
